For test [1], the target named is Phosphatidylinositol 4,5-bisphosphate 3-kinase catalytic subunit gamma isoform (Homo sapiens, UniProt P48736). The test can be described thus: (§1) PI 3-Kinase HTRF Assay: Briefly, the assay is a time resolved FRET assay that indirectly measures PIP3 product formed by the activity of a PI3-K. The kinase reaction is performed in a microtitre plate (e.g., a 384 well microtitre plate). The total reaction volume is approximately 20 ul per well. In the first step, each well receives 2 ul of test compound in 20% dimethylsulphoxide resulting in a 2% DMSO final concentration. Next, approximately 14.5 ul of a kinase/PIP2 mixture (diluted in 1x reaction buffer) is added per well for a final concentration of 0.25-0.3 ug/ml kinase and 10 uM PIP2. The plate is sealed and incubated for 15 minutes at room temperature. To start the reaction, 3.5 ul of ATP (diluted in 1x reaction buffer) is added per well for a final concentration of 10 uM ATP. The plate is sealed and incubated for 1 hour at room temperature. The reaction is stopped by adding 5 ul of Stop Solution per well and then 5 ul of Detection Mix is added per well. The plate is sealed, incubated for 1 hour at room temperature, and then read on an appropriate plate reader. For orientation: In TR-FRET formats the signal depends on donor and acceptor labels being close together.

Test [2] is described as follows: as §1.
Test [3] addresses Phosphatidylinositol 3-kinase regulatory subunit beta (Homo sapiens, UniProt O00459). The test is described as §1.
Test [4] addresses T1, Phosphatidylinositol 4,5-bisphosphate 3-kinase catalytic subunit delta isoform (Homo sapiens, UniProt O00329).
T1 sequence (O00329 whole entry): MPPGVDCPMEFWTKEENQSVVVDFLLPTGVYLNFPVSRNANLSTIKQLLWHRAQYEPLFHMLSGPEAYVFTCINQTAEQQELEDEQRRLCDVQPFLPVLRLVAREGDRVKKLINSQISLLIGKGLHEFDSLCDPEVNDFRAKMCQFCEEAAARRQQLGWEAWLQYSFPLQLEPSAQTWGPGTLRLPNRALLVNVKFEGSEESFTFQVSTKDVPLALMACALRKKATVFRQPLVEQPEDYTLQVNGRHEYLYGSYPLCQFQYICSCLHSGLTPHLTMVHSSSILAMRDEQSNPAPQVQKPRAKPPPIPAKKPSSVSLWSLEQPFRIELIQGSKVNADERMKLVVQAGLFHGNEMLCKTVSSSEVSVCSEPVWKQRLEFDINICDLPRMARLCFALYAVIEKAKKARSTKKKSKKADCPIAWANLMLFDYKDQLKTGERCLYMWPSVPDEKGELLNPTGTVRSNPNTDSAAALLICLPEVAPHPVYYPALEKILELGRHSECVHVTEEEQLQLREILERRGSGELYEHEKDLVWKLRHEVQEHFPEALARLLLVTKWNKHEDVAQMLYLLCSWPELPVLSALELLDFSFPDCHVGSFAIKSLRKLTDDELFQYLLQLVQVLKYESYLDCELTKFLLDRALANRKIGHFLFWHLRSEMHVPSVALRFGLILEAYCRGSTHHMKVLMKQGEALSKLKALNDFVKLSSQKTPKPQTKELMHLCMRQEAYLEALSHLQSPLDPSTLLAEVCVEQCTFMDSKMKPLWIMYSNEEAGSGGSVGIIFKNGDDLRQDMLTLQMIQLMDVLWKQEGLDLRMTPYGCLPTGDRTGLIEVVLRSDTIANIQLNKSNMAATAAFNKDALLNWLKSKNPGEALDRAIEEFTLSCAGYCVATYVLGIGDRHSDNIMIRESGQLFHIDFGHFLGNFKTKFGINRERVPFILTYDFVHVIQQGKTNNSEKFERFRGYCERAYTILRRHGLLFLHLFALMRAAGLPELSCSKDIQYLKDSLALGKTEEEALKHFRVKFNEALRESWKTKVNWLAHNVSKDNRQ
Described as §1.

This passage reports IC50 results from ChEMBL document CHEMBL5725325, “Combination of kinase inhibitors and uses thereof” (2017).

Phosphatidylinositol 3-kinase regulatory subunit beta, sequence (O00459 whole entry, canonical isoform): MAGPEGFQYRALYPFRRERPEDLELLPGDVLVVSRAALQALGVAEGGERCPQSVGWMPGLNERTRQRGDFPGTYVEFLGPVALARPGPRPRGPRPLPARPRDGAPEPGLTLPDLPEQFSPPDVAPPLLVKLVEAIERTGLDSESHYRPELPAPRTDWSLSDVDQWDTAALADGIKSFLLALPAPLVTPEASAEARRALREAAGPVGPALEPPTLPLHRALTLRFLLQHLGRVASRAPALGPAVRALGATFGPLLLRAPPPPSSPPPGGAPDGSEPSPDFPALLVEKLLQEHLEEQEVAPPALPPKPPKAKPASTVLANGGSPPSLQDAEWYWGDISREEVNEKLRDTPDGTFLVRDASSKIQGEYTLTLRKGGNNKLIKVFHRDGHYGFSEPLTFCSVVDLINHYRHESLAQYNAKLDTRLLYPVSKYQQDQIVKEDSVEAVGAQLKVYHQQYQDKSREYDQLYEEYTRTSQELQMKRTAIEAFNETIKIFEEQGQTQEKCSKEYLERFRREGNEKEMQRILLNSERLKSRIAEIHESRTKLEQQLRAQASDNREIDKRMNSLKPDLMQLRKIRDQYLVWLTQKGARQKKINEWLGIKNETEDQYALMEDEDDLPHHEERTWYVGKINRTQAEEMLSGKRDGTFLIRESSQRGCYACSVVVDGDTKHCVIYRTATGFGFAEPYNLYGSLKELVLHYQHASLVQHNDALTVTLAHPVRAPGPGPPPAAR
Phosphatidylinositol 4,5-bisphosphate 3-kinase catalytic subunit gamma isoform, sequence (P48736 whole entry, canonical isoform): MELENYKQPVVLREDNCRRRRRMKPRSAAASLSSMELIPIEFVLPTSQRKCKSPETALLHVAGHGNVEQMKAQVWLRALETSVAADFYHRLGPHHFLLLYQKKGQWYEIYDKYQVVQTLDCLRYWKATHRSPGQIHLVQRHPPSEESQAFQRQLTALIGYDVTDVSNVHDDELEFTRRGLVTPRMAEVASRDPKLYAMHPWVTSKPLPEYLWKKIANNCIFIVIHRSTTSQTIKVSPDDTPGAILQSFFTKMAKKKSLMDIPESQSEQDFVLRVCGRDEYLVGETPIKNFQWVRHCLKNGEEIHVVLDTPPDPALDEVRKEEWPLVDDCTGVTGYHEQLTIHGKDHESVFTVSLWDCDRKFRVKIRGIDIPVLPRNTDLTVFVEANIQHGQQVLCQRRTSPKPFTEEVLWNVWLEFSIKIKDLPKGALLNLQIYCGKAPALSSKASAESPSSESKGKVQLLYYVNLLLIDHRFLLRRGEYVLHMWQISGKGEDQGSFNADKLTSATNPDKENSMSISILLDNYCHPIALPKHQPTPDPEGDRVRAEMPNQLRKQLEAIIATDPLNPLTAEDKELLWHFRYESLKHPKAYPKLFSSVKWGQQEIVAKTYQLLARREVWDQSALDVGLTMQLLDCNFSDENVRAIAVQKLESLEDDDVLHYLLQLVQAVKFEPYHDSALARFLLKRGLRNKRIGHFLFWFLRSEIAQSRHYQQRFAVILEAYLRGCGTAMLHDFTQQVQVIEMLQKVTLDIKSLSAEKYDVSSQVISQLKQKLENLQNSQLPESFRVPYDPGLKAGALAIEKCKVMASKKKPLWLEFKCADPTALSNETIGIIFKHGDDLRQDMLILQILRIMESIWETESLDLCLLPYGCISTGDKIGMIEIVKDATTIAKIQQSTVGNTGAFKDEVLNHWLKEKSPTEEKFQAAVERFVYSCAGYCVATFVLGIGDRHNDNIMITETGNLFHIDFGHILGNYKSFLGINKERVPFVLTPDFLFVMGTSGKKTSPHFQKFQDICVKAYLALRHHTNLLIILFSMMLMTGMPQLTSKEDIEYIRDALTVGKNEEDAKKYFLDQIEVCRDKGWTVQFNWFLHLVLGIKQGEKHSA

The IC50 is the midpoint of a concentration-inhibition curve. On to `Nc1nc2cc(-c3ccc4ncn(-c5ccccc5)c4c3)ccc2o1`, for which the IC50 in test [1] was below 1000 nM.
In the case of `C[C@@H]1COCCN1C1CN(c2cnc3ccc(-c4ccc5oc(N)nc5c4)nc3n2)C1`, in test [2], the IC50 is below 100 nM.
Regarding `CC(C)(N)C(=O)N1CCN(c2cnc3ccc(-c4ccc5oc(N)nc5c4)nc3n2)CC1`, the IC50 in test [3] was below 10000 nM.
Regarding `Nc1nc2cc(-c3ccc4ncc(C(=O)N5CCC(N6CCC(F)(F)C6)C5)n4c3)ccc2o1` (stereo not drawn), the IC50 in test [4] and in test [1] was below 10000 nM in each case.
Turning to `Nc1nc2cc(-c3ccc4ncc(N5CCN(C(=O)C6CCCN6)CC5)nc4c3)ccc2o1` (stereo not drawn), the IC50 in test [3] and in test [2] was below 100 nM in each case.
For `C[C@@H](N)C(=O)N1CCN(c2cnc3ccc(-c4ccc5oc(N)nc5c4)nc3n2)CC1`, the IC50 in test [3] is below 100 nM.
